Test results published in patent US12533348B2, “Ferroportin-inhibitors for the use in the treatment of transfusion-dependent beta-thalassemia (TDT)” (Vifor (International) AG, priority 2019, dated 2026).
Several values for one entry are separate records, joined by “and”; a condition that tells them apart may be missing. Equal entries are not always repeated.

Legend:
[1] = tested on: Hbb^th3/+ mouse model of β-thalassemia intermedia; assay: Combination study: serum iron (MULTIGENT Iron assay), transferrin ELISA and calculated TSAT; assay type: in vivo
Experimental: […] Anesthetized animals were subsequently euthanized by cervical dislocation.
Serum levels of iron were determined in triplicates using MULTIGENT Iron assay (Abbott Diagnostics, Cat. 6K95). Serum Transferrin (TO was measured in duplicates using a mouse-specific ELISA according to the manufacturer's instructions (Abcam, Cat. ab157724). Transferrin saturation (TSAT) was calculated using the formula: […]

[2] = Combination study DFX/Fpn127: clinical observations, mortality and body weight; assay type: in vivo, mouse; details: for BW: th3/+ mice, mean
Experimental: (§1) One day after switching to lid a blood sample was taken by tail vein incision to determine the baseline Hb levels. Hb was measured using a HaemoCue® device. Hb was also measured on days 8, 15, and 22 in the morning before dosing. The animals were dosed p.o. D with 30 mg/kg DFX in 30% Kolliphor, 120 mg/kg Fpn127 in 0.5% C, or both for a total of 17 doses during the 23 days of study. 30% Kolliphor and 0.5% C were dosed as vehicles. The dose of DFX was administered at the beginning of the dark cycle (active phase) at 9:00 followed by 3 h of access to lid. Then, mice were dosed with Fpn127 (or 0.5% C) and were given access to sd for a 6 h period before switched back to lid. On the dosing was paused and mi had access to lid ad libitum.
Animals and their cages were checked daily by the experimenter during the study on working days. During the experimental phase, animals were weighted minimum once per week and scored according to their clinical symptoms: BW, general behavior and activity, appearance of hair coat, eyes, and nose. Clinical observations were recorded when present on separate score sheets.
BW was recorded once before the start of the experimental phase on day −1. During the experimental phase, individual BW were recorded 1 to 2 times per week to calculate the dosing volume and to monitor weight loss.

[3] = tested on: Hbb^th3/+ mouse model of β-thalassemia intermedia; assay: Combination study: flow cytometric analysis of intracellular ROS, mitochondria and PS exposure in mature RBC; assay type: in vivo
Experimental: In peripheral blood taken on day 22 by tail vein incision, ROS were detected with the indicator chloromethyl-2′,7′-dichlorodihydrofluorescein diacetate (CM-H2DCFDA, Invitrogen), the presence of mitochondria was detected with MitoTracker Deep Red FM (Invitrogen), and PS exposure was detected using the Annexin V Apoptosis Detection Kit (Invitrogen) in mature RBC labelled with Ter119 and CD71 antibodies.
For all analysis, cells were analyzed on a CANTOII cytometer (BD Biosciences) and data were analyzed using FlowJo® software (FlowJo, LLC, version 10.2).

[4] = tested on: Hbb^th3/+ mouse model of β-thalassemia intermedia; assay: Combination study: complete blood counts (ProCyte Dx); assay type: in vivo
Experimental: Complete blood counts were performed on fresh EDTA-blood on an automated blood cell analyzer (ProCyte Dx®, IDEXX Laboratories) in-house.

[5] = tested on: Hbb^th3/+ mouse model of β-thalassemia intermedia; assay: Combination study: serum EPO (DuoSet ELISA); assay type: in vivo
Experimental: (§2) On day 23 (study end) 1 hour after dosing blood was collected by retro-orbital bleeding from pre-terminally anesthetized mice into BD Microtainer Tubes (Cat. 365967 and 365975) for determination of serum iron, transferrin, erythropoietin and compound exposure. Anesthetized animals were subsequently euthanized by cervical dislocation.
(§3) [formula] Serum EPO was measured using a mouse-specific DuoSet ELISA according to the manufacturer's instructions (R&D Systems, Cat. DY959). Plasma concentrations of Fpn127 and DFX were measured at GVK Biosciences, Hyderabad, IN. Flow Cytometric Analysis of Intracellular ROS, Mitochondria, and PS Exposure

[6] = tested on: Hbb^th3/+ mouse model of β-thalassemia intermedia; assay: Combination study: hemoglobin (HemoCue photometer); assay type: in vivo; details: for Hb concentration: th3/+ mice, Fpn127 120 mg/kg QD p.o., mean
Experimental: as §1
Hb was measured on days 1, 8, 15 and 22. Individual Hb values were determined at the starting day of the experiment (day 1) and weekly thereafter during the experimental phase in the morning before the first daily dose. A blood sample was taken by tail vein incision and Hb was measured using a HemoCue® DM201 Hb photometer.

[7] = Combination study: plasma concentrations of Fpn127 and DFX (LC-MS/MS); assay type: in vivo, mouse
Experimental: as §2, §3
Plasma was collected 1 hour after dosing of DFX on day 23 for determination of compound concentration by LC-MS/MS. Plasma exposure of DFX was similar in animals dosed with DFX alone or in combination with Fpn127 (FIG. 11, Table 12). […] As expected, plasma levels of Fpn127 were low as plasma was sampled approximately 20 h after the last dose of Fpn127.

[8] = th3/+ mice, all animals, mature RBCs in whole blood at end of study (pre-terminally d22)
[9] = th3/+ mice, DFX 30 mg/kg QD, Fpn127 120 mg/kg QD p.o., whole blood day 23, all animals, mean

SMILES: O=C(NCc1ncccc1F)c1coc(CCNCCc2nc3ccccc3[nH]2)n1 [Fpn127]
- effect on TSAT ([1]; Hbbth3/+ mice, day 23 (FIG. 10)): significantly decreased
- TSAT ([1]; calculated from Tf and serum iron, th3/+ mice, day 23, 1 h after last DFX dose, approx. 20 h after last Fpn127 dose, all animals, mean): 17.7%
- effect on serum iron vs vehicle treated th3/+ and WT animals ([1]; day 23, last Fpn127 dose given 20 h before (FIG. 10)): significantly reduced
- serum iron ([1]; th3/+ mice, day 23, 1 h after last DFX dose (30 mg/kg), approx. 20 h after last Fpn127 dose (120 mg/kg), all animals, mean): 19.9 ± 3.3 µM and 19.9 µM
- tolerability / clinical symptoms ([2]; Hbb^th3/+ mice, DFX 30 mg/kg QD, Fpn127 120 mg/kg QD p.o., 17 doses in 23 days): generally well tolerated
- effect on BW vs vehicle-treated Hbb^th3/+ mice or WT mice ([2]; males and females, once daily for the duration of the study (d22)): no effect on BW
- BW ([2]; DFX 30 mg/kg QD, Fpn127 120 mg/kg QD p.o., day 1, all animals): 22.2 g
- BW ([2]; DFX 30 mg/kg QD, Fpn127 120 mg/kg QD p.o., day 1, females): 19.4 ± 1.0 g and 19.4 g
- BW ([2]; DFX 30 mg/kg QD, Fpn127 120 mg/kg QD p.o., day 1, males): 25.1 ± 1.0 g and 25.1 g
- BW ([2]; DFX 30 mg/kg QD, Fpn127 120 mg/kg QD p.o., day 3, all animals): 23.6 g
- BW ([2]; DFX 30 mg/kg QD, Fpn127 120 mg/kg QD p.o., day 3, females): 20.3 g
- BW ([2]; DFX 30 mg/kg QD, Fpn127 120 mg/kg QD p.o., day 3, males): 26.9 g
- BW ([2]; DFX 30 mg/kg QD, Fpn127 120 mg/kg QD p.o., day 7, all animals): 23.1 g
- BW ([2]; DFX 30 mg/kg QD, Fpn127 120 mg/kg QD p.o., day 7, females): 19.8 g
- BW ([2]; DFX 30 mg/kg QD, Fpn127 120 mg/kg QD p.o., day 7, males): 26.5 g
- BW ([2]; DFX 30 mg/kg QD, Fpn127 120 mg/kg QD p.o., day 10, all animals): 23.4 g
- BW ([2]; DFX 30 mg/kg QD, Fpn127 120 mg/kg QD p.o., day 10, females): 20.3 g
- BW ([2]; DFX 30 mg/kg QD, Fpn127 120 mg/kg QD p.o., day 10, males): 26.5 g
- BW ([2]; DFX 30 mg/kg QD, Fpn127 120 mg/kg QD p.o., day 14, all animals): 23.3 g
- BW ([2]; DFX 30 mg/kg QD, Fpn127 120 mg/kg QD p.o., day 14, females): 20.2 g
- BW ([2]; DFX 30 mg/kg QD, Fpn127 120 mg/kg QD p.o., day 14, males): 26.3 g
- BW ([2]; DFX 30 mg/kg QD, Fpn127 120 mg/kg QD p.o., day 17, all animals): 23.2 g
- BW ([2]; DFX 30 mg/kg QD, Fpn127 120 mg/kg QD p.o., day 17, females): 19.7 g
- BW ([2]; DFX 30 mg/kg QD, Fpn127 120 mg/kg QD p.o., day 17, males): 26.6 g
- BW ([2]; DFX 30 mg/kg QD, Fpn127 120 mg/kg QD p.o., day 22, all animals): 23.3 g
- BW ([2]; DFX 30 mg/kg QD, Fpn127 120 mg/kg QD p.o., day 22, females): 19.8 g
- BW ([2]; DFX 30 mg/kg QD, Fpn127 120 mg/kg QD p.o., day 22, males): 26.7 g
- proportion of PS-positive RBC (annexin V staining) ([3]; Hbbth3/+ mice (FIG. 12)): significantly decreased
- RBC function/quality (oxidative stress, apoptosis and maturation) ([3]; Hbbth3/+ mice, summary): improved RBC quality
- proportion of ROS-producing RBC ([3]; compared to Hbbth3/+ mice treated with vehicle or DFX alone, CM-H2DCFDA (FIG. 12)): significantly decreased
- RBC containing mitochondria ([3]; compared to vehicle-treated and DFX-treated Hbbth3/+ mice (FIG. 12)): less RBC containing mitochondria
- % Annex in V-positive RBCs (mean) [3, 8]: 0.29%
- % Mito Tracker-positive RBCs (mean) [3, 8]: 0.19%
- % ROS-positive RBCs (mean) [3, 8]: 32.82%
- leukocyte, neutrophil and lymphocyte counts ([4]; Hbb^th3/+ mice, day 23 (FIG. 8), for DFX alone: total leukocyte and lymphocyte counts): reduced to levels similar to WT
- RBC indices (RBC counts, hematocrit, RDW, reticulocyte counts) ([4]; Hbbth3/+ mice, day 23 (FIG. 7)): significantly improved
- HCT [4, 9]: 31.2%
- Leukocytes [4, 9]: 5.7 10E3/μL
- Lymphocytes [4, 9]: 5.0 10E3/μL
- MCH [4, 9]: 9.9 pg
- MCHC [4, 9]: 27.4 g/dL
- MCV [4, 9]: 36.4 fL
- Neutrophils [4, 9]: 0.3 10E3/μL
- RBC [4, 9]: 9.9 10E6/μL
- RDW [4, 9]: 39.1%
- RET [4, 9]: 1332 10E3/μL
- Ret-He [4, 9]: 11.8 pg
- effect on EPO levels ([5]; Hbbth3/+ animals, day 23 (FIG. 10)): reduced EPO levels
- EPO ([5]; serum, th3/+ mice, day 23, DFX 30 mg/kg QD, Fpn127 120 mg/kg QD p.o., all animals, mean): 3938 ± 1167 pg/mL and 3938 pg/mL
- change of Hb levels compared to vehicle-treated mice ([6]; Hbb^th3/+ mice, by the study end, Fpn127 120 mg/kg QD, DFX 30 mg/kg QD): 13 g/L
- Hb levels during the study duration ([6]; Hbbth3/+ animals (FIG. 6)): increased with time
- Hb concentration ([6]; DFX 30 mg/kg QD, day 1 (before dosing), all animals): 85 g/L
- Hb concentration ([6]; DFX 30 mg/kg QD, day 1 (before dosing), females): 85 ± 4 g/L and 85 g/L
- Hb concentration ([6]; DFX 30 mg/kg QD, day 1 (before dosing), males): 85 ± 6 g/L and 85 g/L
- Hb concentration ([6]; DFX 30 mg/kg QD, day 8, all animals): 92 g/L
- Hb concentration ([6]; DFX 30 mg/kg QD, day 8, females): 93 g/L
- Hb concentration ([6]; DFX 30 mg/kg QD, day 8, males): 90 g/L
- Hb concentration ([6]; DFX 30 mg/kg QD, day 15, all animals): 96 g/L
- Hb concentration ([6]; DFX 30 mg/kg QD, day 15, females): 99 g/L
- Hb concentration ([6]; DFX 30 mg/kg QD, day 15, males): 93 g/L
- Hb concentration ([6]; DFX 30 mg/kg QD, day 22, all animals): 98 g/L
- Hb concentration ([6]; DFX 30 mg/kg QD, day 22, females): 101 g/L
- Hb concentration ([6]; DFX 30 mg/kg QD, day 22, males): 95 g/L
- plasma levels of Fpn127 ([7]; approximately 20 h after the last dose of Fpn127): low
- plasma exposure of Fpn127, in presence vs absence of DFX ([7]; day 23 (FIG. 11)): comparable
- Plasma exposure of Fpn127 at the end of the study (mean) ([7]; th3/+ mice, all animals, plasma collected on day 23, approximately 20 h after the last dose of Fpn127, LC-MS/MS): 68 ng/mL
